The source of these data is patent US10308620B2, “Muscarinic M1 receptor positive allosteric modulators” (SUVEN LIFE SCIENCES LIMITED, priority 2015, dated 2019).

Where two headings read alike, the source gives them in different places.

One data set concerns the target M1 muscarinic receptor (Homo sapiens (Human), UniProt P11229). The settings on record: cited from earlier work.
For data set [1] the following is noted: cited from earlier work.
The conditions of data set [2]: cited from earlier work. The source holds these as a separate data set.
Data set [3] has as its target recombinant human Muscarinic M1 receptor (Homo sapiens (Human), UniProt P11229). The experiment in a line: Allosteric potency EC50, CHO cells with pCRE-Luc reporter, in presence of EC20 of acetylcholine. It is filed as cell-based. The following applies: 4 hours. The essentials:
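Stable CHO cells carrying human M1 receptor and a pCRE-Luc reporter, serum-starved overnight, then exposed to rising compound concentrations plus EC20 acetylcholine in OptiMEM for 4 h at 37 °C. Luciferase read after lysis. EC50 is the concentration giving 50% luciferase stimulation with EC20 acetylcholine present.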

For data set [4], the system named is Male Wistar rats. The experiment in a line: Object recognition task model (time induced memory deficit). Type of data set: in vivo, rat. The following applies: p.o.; for Exploration time mean ± S.E.M, Familiar object / Exploration time mean ± S.E.M, Novel object: choice trial 24 hours after T1. How it is done: Object Recognition Task Model
(§1) The cognition enhancing properties of compounds of this invention were estimated by using this model.
(§2) Male Wistar rats (8-10 weeks old) were used as experimental animals. Four animals were housed in each cage. Animals were kept on 20% food deprivation from a day prior to experimentation. Water was provided ad libitum throughout the experiment. Animals were maintained on a 12 hours light/dark cycle in temperature and humidity controlled room. The experiment was carried out in an open field made up of acrylic. Rats were habituated to individual arenas (open field) for 1 hour in the absence of any objects on day 1.
One group of 12 rats received vehicle and another set of animals received test compounds or test compounds and Donepezil, before the familiar (T1) and choice (T2) trials. During the familiarization phase, (T1), the rats were placed individually in the arena for 3 minutes, in which two identical objects (a1 and a2) were positioned 10 cm from the wall. 24 hours after T1, trial for long-term memory test was performed. The same rats were placed in the same arena as they were placed in T1 trial. During the choice phase (T2) rats were allowed to explore the arena for 3 minutes in presence of a copy of familiar object (a3) and one novel object (b). During the T1 and T2 trial, explorations of each object (defined as sniffing, licking, chewing or having moving vibrissae whilst directing the nose towards the object at a distance of less than 1 cm) were recorded using stopwatch.
(§3) T1 is the total time spent exploring the familiar objects (a1+a2).
(§4) T2 is the total time spent exploring the familiar object and novel object (a3+b). Discriminative index=Time spent with novel object/(time spent with novel and familiar object).
The object recognition test was performed as described in Behavioural Brain Research, 1988, 31, 47-59.

The nature of data set [5]: Rodent pharmacokinetic study. It is filed as in vivo, rat. The settings on record: male Wistar rats; for clearance / half-life / Vd / Cmax / Tmax / bioavailability: rat, plasma; for Vd: read-out: Vz; for bioavailability: 3 mg/kg oral vs 1 mg/kg i.v. The procedure:
Rodent Pharmacokinetic Study
Male Wistar rats (260±50 grams) were used as experimental animals. Animals were housed individually in polypropylene cage. Two days prior to study, male Wistar rats were anesthetized with isoflurane for surgical placement of jugular vein catheter. Rats were randomly divided for oral (3 mg/kg) and intravenous (1 mg/kg) dosing (n=3/group) and fasted overnight before oral dosing (p.o.). However, rats allocated to intravenous (i.v.) dosing food and water was provided ad libitum.
At pre-determined point, blood was collected through jugular vein and replenished with an equivalent volume of normal saline. Collected blood was transferred into a labeled eppendorf tube containing 10 μL of heparin as an anticoagulant. Typically blood samples were collected at following time points: 0.08, 0.25, 0.5, 1, 2, 4, 6, 8, and 24 hours post dose. Blood was centrifuged at 4000 rpm for 10 minutes. Plasma was separated and stored frozen at −80° C. until analysis. The concentrations of the test compounds were quantified in plasma by qualified LC-MS/MS method using suitable extraction technique. The test compounds were quantified in the calibration range around 1-1000 ng/mL in plasma. Study samples were analyzed using calibration samples in the batch and quality control samples spread across the batch.
Pharmacokinetic parameters Cmax, Tmax, AUCt, T1/2, clearance, Vz and bioavailability were calculated by non-compartmental model using standard non-compartmental model by using Phoenix WinNonlin 6.0.2 or 6.0.3 version Software package.

The nature of data set [6]: Rodent brain penetration study. It is filed as in vivo. The following applies: rat, oral, 3 mg/kg, p.o., male Wistar rats, read-out: Single dose Rat Brain Penetration (Cb/Cp). How it is done: Rodent Brain Penetration Study
Male Wistar rats (260±40 grams) were used as experimental animals. Three animals were housed in each cage. Animals were given water and food ad libitum throughout the experiment and maintained on a 12 hours light/dark cycle.
Brain penetration was determined in discrete manner in rats. One day prior to dosing day, male Wistar rats were acclimatized and randomly grouped according to their weight. At each time point (0.50, 1 and 2 hours) n=3 animals were used.
The test compounds were suitably preformulated and administered orally at (free base equivalent) 3 mg/kg. Blood samples were removed via cardiac puncture by using isoflurane anesthesia. The animals were sacrificed to collect brain tissue. Plasma was separated and brain samples were homogenized and stored frozen at −20° C. until analysis. The concentrations of the test compounds in plasma and brain were determined using LC-MS/MS method.
The test compounds were quantified in plasma and brain homogenate by qualified LC-MS/MS method using suitable extraction technique. The test compounds were quantified in the calibration range of 1-500 ng/mL in plasma and brain homogenate. Study samples were analyzed using calibration samples in the batch and quality control samples spread across the batch. Extent of brain-plasma ratio was calculated (Cb/Cp).

The test system of data set [7] is Male Wistar rats. The experiment in a line: Object recognition task model - scopolamine challenge. Type of data set: in vivo, rat. The following applies: 0.3 mg/kg, p.o., with scopolamine. How it is done: Object Recognition Task Model—Scopolamine Challenge
as §1, §2
Rats received vehicle or vehicle and scopolamine or compound of the formula (I) and scopolamine, before the familiar (T1). During the familiarization phase, (T1), the rats were placed individually in the arena for 3 minutes, in which two identical objects (a1 and a2) were positioned 10 cm from the wall. 3 minutes after T1, trial for memory test was performed. The same rats were placed in the same arena as they were placed in T1 trial. During the choice phase (T2) rats were allowed to explore the arena for 3 minutes in presence of a copy of familiar object (a3) and one novel object (b). During the T1 and T2 trial, explorations of each object (defined as sniffing, licking, chewing or having moving vibrissae whilst directing the nose towards the object at a distance of less than 1 cm) were recorded using stopwatch.
as §3, §4

[8] abbreviates: choice trial 3 minutes after T1.

Chain of recombinant human Muscarinic M1 receptor (P11229 whole entry): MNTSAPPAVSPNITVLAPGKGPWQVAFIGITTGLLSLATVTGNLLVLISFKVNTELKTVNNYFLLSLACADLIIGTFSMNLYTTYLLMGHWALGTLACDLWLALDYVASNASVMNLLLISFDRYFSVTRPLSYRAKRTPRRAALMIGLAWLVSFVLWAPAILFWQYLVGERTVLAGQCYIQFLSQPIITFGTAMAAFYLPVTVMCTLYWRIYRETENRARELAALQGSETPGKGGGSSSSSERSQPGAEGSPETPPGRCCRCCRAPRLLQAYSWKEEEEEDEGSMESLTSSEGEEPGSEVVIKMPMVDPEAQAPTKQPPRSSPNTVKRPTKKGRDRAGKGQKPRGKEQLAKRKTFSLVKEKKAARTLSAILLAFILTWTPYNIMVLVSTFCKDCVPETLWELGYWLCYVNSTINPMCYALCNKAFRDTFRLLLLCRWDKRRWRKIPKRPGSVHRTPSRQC

Turning to `N#CC1(c2ccccn2)CCN(Cc2cc(C(=O)O)c(=O)n3ccccc23)CC1` [PQCA, 1-{[4-cyano-4-(pyridine-2-yl)piperidin-1-yl]methyl}-4-oxo-4H-quinolizine-3-carboxylic acid], the “selectivity for M1 over the other muscarinic receptor sub types” value at M1 muscarinic receptor is recorded as “highly selective”. In data set [1] (at doses equal to or less than a fivefold margin from the minimum effective dose), the gastrointestinal side effects entry is on record as “no gastrointestinal side effects”. Also, in data set [1] (in vivo), the “efficacy in preclinical models of cognition” value is on record as “efficacious”.
In the case of `CCCCCCOc1nsnc1C1=CCCN(C)C1` [Xanomeline], in data set [2] (clinical Alzheimer's disease trial), the effects on cognition entry was “significant effects on cognition”. Moreover, the gastrointestinal side effects entry in data set [2] (clinical trials) was “gastrointestinal side effects led to a high dropout rate”.
As usually defined, the EC50 is the concentration giving half of the maximal effect. Broadly, the clearance is the volume of plasma or blood freed of the substance per unit of time. Higher therefore signals efficient removal. The term half-life denotes the time needed for the level to fall by half in the phase considered. By Cmax is commonly meant the highest concentration seen after dosing. As a reminder, the Tmax is the time from dosing to the highest level. A word on the bioavailability: it is the share of a dose that reaches the circulation, judged against a reference dose that is usually intravenous. Lower therefore signals little systemic uptake. As for `O=C(N[C@H]1CCCC[C@@H]1O)C1=CN(Cc2cccc(F)c2)c2ccccc2O1` [Example 7, N-(cis-1S, 2S-2-Hydroxycyclohexyl)-4-(3-fluorobenzyl)-4H-benzo[1,4]oxazine-2-carboxamide], the EC50 in data set [3] was found to be 891 nM. Besides, in the data set with Male Wistar rats [4] (3 mg/kg), the Inference result is reported as “Active”; the “Exploration time mean ± S.E.M, Familiar object” value stood at 9.23 ± 1.53 s; the “Exploration time mean ± S.E.M, Novel object” value is 13.92 ± 1.99 s. Moreover, the AUC0-t in data set [5] (1 mg/kg i.v. (bolus)) came to 553 ± 42 ng·h/mL. Besides, in data set [5] (3 mg/kg oral (gavage)), the AUC0-t came out at 652 ± 227 ng·h/mL, the Cmax was 313 ± 111 ng/mL, the Tmax worked out at 0.5 h and the half-life was 1.8 ± 0.3 h. Moreover, in data set [5] (iv, 1 mg/kg i.v. (bolus)), the clearance worked out at 29 ± 2 mL/min/kg, the half-life was 1.7 ± 0.3 h and the Vd stood at 4.3 ± 0.9 L/kg. The same compound yielded a bioavailability in data set [5] of 39 ± 14%. Besides, in data set [6], the Kp came out at 1.04 ± 0.16.
`COc1cccc(CN2C=C(C(=O)N[C@H]3CCCC[C@@H]3O)Oc3ccccc32)c1` [Example 9, N-(cis-1S, 2S-2-Hydroxycyclohexyl)-4-(3-methoxybenzyl)-4H-benzo[1,4]oxazine-2-carboxamide]: in data set [3], the EC50 is 699 nM. Further, in the data set with Male Wistar rats [4] (1 mg/kg), the Inference result is “Active”; the “Exploration time mean ± S.E.M, Familiar object” value turned out to be 8.64 ± 0.82 s; the “Exploration time mean ± S.E.M, Novel object” value came to 18.55 ± 1.70 s. This compound came in with an AUC0-t in data set [5] (1 mg/kg i.v. (bolus)) of 711 ± 137 ng·h/mL. Also, in data set [5] (3 mg/kg oral (gavage)), the AUC0-t turned out to be 1180 ± 245 ng·h/mL, the Cmax was found to be 320 ± 68 ng/mL, the Tmax worked out at 1.33 ± 0.58 h and the half-life was 2.9 ± 1.3 h. Besides, in data set [5] (iv, 1 mg/kg i.v. (bolus)), the clearance was 24 ± 4 mL/min/kg, the half-life is 4.2 ± 2.2 h and the Vd was found to be 8.3 ± 4.1 L/kg. Moreover, the bioavailability in data set [5] worked out at 55 ± 11%. Moreover, the Kp in data set [6] was determined as 0.65 ± 0.2.
Take `O=C(N[C@H]1CCCC[C@@H]1O)C1=CN(Cc2ccccc2F)c2ccccc2O1` [Example 1, N-(cis-1S, 2S-2-Hydroxycyclohexyl)-4-(2-fluorobenzyl)-4H-benzo[1,4]oxazine-2-carboxamide]: the EC50 in data set [3] was found to be 422 nM. Moreover, in the data set on Male Wistar rats [4] (1 mg/kg), the Inference entry is given as “Active”; the “Exploration time mean ± S.E.M, Familiar object” value is 10.93 ± 1.98 s; the “Exploration time mean ± S.E.M, Novel object” value was determined as 19.27 ± 2.94 s. Also, the Inference result in the data set on Male Wistar rats [7] is “Active”. For the same compound, in the data set on Male Wistar rats [7] (setting [8]), the “Exploration time mean ± S.E.M, Familiar object” value came to 11.57 ± 1.51 s and the “Exploration time mean ± S.E.M, Novel object” value was 22.66 ± 2.90 s. The AUC0-t in data set [5] (1 mg/kg i.v. (bolus)) was 834 ± 101 ng·h/mL. In data set [5] (3 mg/kg oral (gavage)), the AUC0-t worked out at 989 ± 386 ng·h/mL, the Cmax turned out to be 419 ± 162 ng/mL, the time of peak concentration (Tmax) came out at 0.5 h and the half-life is 2.3 ± 1.1 h. Further, in data set [5] (iv, 1 mg/kg i.v. (bolus)), the clearance was 19 ± 2 mL/min/kg, the half-life was 2.3 ± 0.7 h and the Vd stood at 4 ± 1.4 L/kg. Besides, the bioavailability in data set [5] is 40 ± 15%. In addition, in data set [6], the Kp was found to be 1.18 ± 0.38.
Regarding `COc1cc(CN2C=C(C(=O)N[C@H]3CCCC[C@@H]3O)Oc3ccccc32)ccn1` [Example 11, N-(cis-1S,2S-2-Hydroxycyclohexyl)-4-(2-methoxypyridin-4-ylmethyl)-4H-benzo[1,4]oxazine-2-carboxamide], in data set [3], the 50% effective concentration (EC50) is 498 nM. In the data set with Male Wistar rats [4] (1 mg/kg), the Inference result was “Active”; the “Exploration time mean ± S.E.M, Familiar object” value came out at 10.05 ± 1.66 s; the “Exploration time mean ± S.E.M, Novel object” value was 16.92 ± 1.86 s. The compound also returned an AUC0-t in data set [5] (1 mg/kg i.v. (bolus)) of 838 ± 163 ng·h/mL. Moreover, in data set [5] (3 mg/kg oral (gavage)), the AUC0-t worked out at 1500 ± 200 ng·h/mL, the highest concentration (Cmax) was found to be 392 ± 43 ng/mL, the Tmax turned out to be 1 h and the half-life was 1.8 ± 0.1 h. Besides, in data set [5] (iv, 1 mg/kg i.v. (bolus)), the clearance came to 20 ± 4 mL/min/kg, the half-life is 1.9 ± 0.6 h and the Vd turned out to be 3.1 ± 0.3 L/kg. In data set [5], this compound displayed a bioavailability of 60 ± 8%. The Kp in data set [6] came out at 1.44 ± 0.16.
